{"source": "ChEMBL document CHEMBL4130591", "about": "“2-Arylidene Hydrazinecarbodithioates as Potent, Selective Inhibitors of Cystathionine γ-Lyase (CSE)” (ACS Med Chem Lett, 2017)", "note": "The source made the active and inactive calls. The rule behind the calls is not given here."}
{"target": "T1, Cystathionine gamma-lyase (Homo sapiens, UniProt P32929)", "T1 sequence (P32929 whole entry)": "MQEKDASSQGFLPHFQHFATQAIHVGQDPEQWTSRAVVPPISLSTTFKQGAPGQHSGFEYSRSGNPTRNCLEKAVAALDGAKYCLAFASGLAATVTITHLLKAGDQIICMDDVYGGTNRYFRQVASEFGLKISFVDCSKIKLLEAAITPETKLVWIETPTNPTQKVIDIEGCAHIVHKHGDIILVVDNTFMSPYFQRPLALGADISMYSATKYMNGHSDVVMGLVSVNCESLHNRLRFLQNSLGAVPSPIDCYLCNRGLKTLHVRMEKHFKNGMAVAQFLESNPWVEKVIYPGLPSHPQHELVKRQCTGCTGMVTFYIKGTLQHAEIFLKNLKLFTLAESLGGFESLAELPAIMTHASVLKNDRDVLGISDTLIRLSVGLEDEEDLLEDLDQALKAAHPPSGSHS", "assay": "Inhibition of cystathionine gamma-lyase (unknown origin) assessed as reduction in cysteine formation from CPM using L-cystathionine pre-incubated for 15 min followed by L-cystathionine and CPM addition and measured after 7 mins by fluorescence-based primary assay", "units": {"IC50": "µM"}}
{"compound": "COc1ccc(NC(=O)CSC(=S)N/N=C/c2nn(C)cc2Cl)cc1", "IC50": 2.7}
{"compound": "O=C(CSC(=S)N/N=C/c1ccccn1)Nc1ccccc1", "IC50": 6}
{"compound": "CSC(=S)N/N=C/c1ccccn1", "IC50": 6}
{"compound": "CSC(=S)N/N=C/c1ncccc1C", "IC50": 6}
{"compound": "O=C(CSC(=S)N/N=C/c1ncccc1F)Nc1ccc(C(F)(F)F)cc1", "IC50": 6}
{"compound": "CSC(=S)N/N=C/c1ccncc1", "IC50": 40}
{"compound": "Cc1ccc(NC(=O)CSC(=S)N/N=C/c2cccc(Br)n2)cc1", "IC50": 10}
{"compound": "COc1ccc(NC(=O)CSC(=S)N/N=C/c2ncccc2F)cc1", "IC50": 1.2}
{"compound": "CSC(=S)N/N=C/c1cccc(C)n1", "IC50": 5}
{"compound": "CS/C(S)=N/N=C(\\C)c1ccccn1", "IC50": "> 100"}
{"compound": "Cc1ccc(NC(=O)CSC(=S)N/N=C/c2cccnc2)cc1", "IC50": 25}
{"compound": "CSC(=S)N/N=C/c1cc[nH]n1", "IC50": 15}
{"compound": "CSC(=S)N/N=C/c1cnccn1", "IC50": 15}
{"compound": "CSC(=S)N/N=C/c1cccnc1", "IC50": 50}
{"compound": "Cc1cccc(/C=N/NC(=S)SCC(=O)Nc2ccc(C(C)(C)C)cc2)n1", "IC50": 6}
{"compound": "Cc1ccc(NC(=O)CSC(=S)N/N=C/c2ncccc2F)cc1", "IC50": 2}
{"compound": "O=C(CSC(=S)N/N=C/c1ccccn1)Nc1cccc(Br)c1", "IC50": "> 100"}
{"compound": "Cc1ccc(NC(=O)CSC(=S)N/N=C/c2ccccn2)cc1", "IC50": 2}
{"compound": "CC(C)(C)c1ccc(NC(=O)CSC(=S)N/N=C/c2cnccn2)cc1", "IC50": "> 100"}
{"compound": "CC(C)(C)c1ccc(NC(=O)CSC(=S)N/N=C/c2ncccc2F)cc1", "IC50": 2}
{"compound": "Cc1ccc(NC(=O)CSC(=S)N/N=C/c2cccc(C)n2)cc1", "IC50": 3.5}
{"compound": "CC(C)(C)c1ccc(NC(=O)CSC(=S)N/N=C/c2cccc(Br)n2)cc1", "IC50": 15}
{"compound": "CSC(=S)N/N=C/c1cc2ccccc2n1C", "IC50": "> 100"}
{"compound": "CC(C)(C)c1ccc(NC(=O)CSC(=S)N/N=C/c2ccccn2)cc1", "IC50": 3}
{"compound": "CSC1=NNC(c2ccccn2)S1", "note": "(stereo not given)", "IC50": 6}
{"compound": "CSC(=S)N/N=C/c1ccc(Br)cn1", "IC50": 10}
{"compound": "COc1ccc(NC(=O)CSC(=S)N/N=C/c2cccc(C)n2)cc1", "IC50": 1.9}
{"compound": "CSC(=S)N/N=C/c1cscn1", "IC50": 7}
{"compound": "Cc1ccc(NC(=O)CSC(=S)N/N=C/c2nn(C)cc2Cl)cc1", "IC50": 3}
{"compound": "COc1ccc(NC(=O)CSC(=S)N/N=C/c2ccc(Br)cn2)cc1", "IC50": "> 100"}
{"compound": "COc1ccc(NC(=O)CSC(=S)N/N=C/c2ccccn2)cc1", "IC50": 2}
{"compound": "CC(C)(C)c1ccc(NC(=O)CSC(=S)N/N=C/c2ccncc2)cc1", "IC50": 40}
{"compound": "Cc1ccc(NC(=O)CSC(=S)N/N=C/c2ncccc2C)cc1", "IC50": 2.5}
{"compound": "Cn1cc(Cl)c(/C=N/NC(=S)SCC(=O)Nc2ccc(C(C)(C)C)cc2)n1", "IC50": 6}
{"compound": "O=C(CSC(=S)N/N=C/c1ccccn1)Nc1ccc(F)cc1", "IC50": "> 100"}
{"compound": "CC(C)(C)c1ccc(NC(=O)CSC(=S)N/N=C/c2cccnc2)cc1", "IC50": 12}
{"compound": "CSC(=S)N/N=C/c1ncccc1F", "IC50": 5}
{"compound": "CSC(=S)N/N=C/c1nn(C)cc1Cl", "IC50": 6}
{"compound": "CSC(=S)N/N=C/c1c[nH]c2ccccc12", "IC50": "> 100"}
{"compound": "CSC(=S)N/N=C/c1cccc(Br)n1", "IC50": 12}
{"compound": "COc1ccc(NC(=O)CSC(=S)N/N=C/c2cscn2)cc1", "IC50": 2.1}
{"species_on_record": "Homo sapiens", "assay": "Selectivity for cystathionine gamma-lyase (unknown origin) over human recombinant CBS"}
{"compound": "COc1ccc(NC(=O)CSC(=S)N/N=C/c2ncccc2F)cc1", "Selectivity ratio": 400}
{"target": "T1, Cystathionine gamma-lyase", "assay": "Inhibition of cystathionine gamma-lyase (unknown origin)", "units": {"IC50": "µM"}}
{"compound": "N=C1C=C(N)C(=O)c2[nH]c(=O)ccc21", "IC50": 6.3}
{"compound": "NCCO/C=C/[C@H](N)C(=O)O", "IC50": 1.1}
{"compound": "CC(C)(S)[C@@H](N)C(=O)O", "note": "[PENICILLAMINE]", "IC50": 270}
{"compound": "C#CCNC(=O)[C@H]1CSC(=O)N1", "IC50": 30}
{"target": "T1, Cystathionine gamma-lyase", "assay": "Reversible inhibition of cystathionine gamma-lyase (unknown origin) assessed as reduction in cysteine formation from CPM using L-cystathionine at 50 uM incubated for 2 hrs followed by dialysis for 18 to 48 hrs by fluorescence-based primary assay"}
{"compound": "CSC1=NNC(c2ccccn2)S1", "note": "(stereo not given)", "inhibition": "Active"}
{"target": "T1, Cystathionine gamma-lyase", "assay": "Inhibition of cystathionine gamma-lyase (unknown origin) assessed as reduction in H2S production at 40 uM using AzMC probe by fluorescence based assay"}
{"compound": "CSC1=NNC(c2ccccn2)S1", "note": "(stereo not given)", "inhibition": "Active"}
{"target": "T1, Cystathionine gamma-lyase", "assay": "Inhibition of cystathionine gamma-lyase (unknown origin) assessed as reduction in cysteine formation from CPM at 40 uM using L-cystathionine incubated for 7 mins by fluorescence-based primary assay", "units": {"inhibition": "%"}}
{"compound": "CSC1=NNC(c2ccccn2)S1", "note": "(stereo not given)", "inhibition": "> 30"}
{"target": "T2, Cystathionine beta-synthase (Homo sapiens) (UniProt P35520)", "T2 sequence (whole entry)": "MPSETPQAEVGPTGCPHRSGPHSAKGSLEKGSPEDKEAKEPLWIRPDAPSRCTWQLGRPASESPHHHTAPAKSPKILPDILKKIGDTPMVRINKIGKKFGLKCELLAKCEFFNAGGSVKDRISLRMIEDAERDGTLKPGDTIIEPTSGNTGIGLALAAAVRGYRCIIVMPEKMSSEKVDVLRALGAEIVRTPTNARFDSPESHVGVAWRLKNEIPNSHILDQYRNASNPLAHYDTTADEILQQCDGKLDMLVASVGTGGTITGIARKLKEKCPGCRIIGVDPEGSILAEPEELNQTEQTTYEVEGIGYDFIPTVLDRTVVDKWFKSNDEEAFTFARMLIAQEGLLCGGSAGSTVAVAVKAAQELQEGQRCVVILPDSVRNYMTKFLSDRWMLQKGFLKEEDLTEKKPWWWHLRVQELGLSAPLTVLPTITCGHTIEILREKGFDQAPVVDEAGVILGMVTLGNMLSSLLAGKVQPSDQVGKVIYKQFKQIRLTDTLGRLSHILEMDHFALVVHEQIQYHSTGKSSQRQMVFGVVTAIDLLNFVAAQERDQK", "assay": "Inhibition of human recombinant CBS assessed as reduction in H2S production at 40 uM using AzMC probe by fluorescence based assay"}
{"compound": "CSC1=NNC(c2ccccn2)S1", "note": "(stereo not given)", "inhibition": "inactive"}
